Key:
[1] = biological target: T1, H. pylori inosine-5′-monophosphate dehydrogenase (HpIMPDH) (Helicobacter pylori, UniProt P56088); assay: In vitro HpIMPDH inhibition assay (NADH fluorescence); assay type: biochemical; set-up: HpIMPDH inhibitory activity: unit not given here
T1 sequence (P56088 1-481): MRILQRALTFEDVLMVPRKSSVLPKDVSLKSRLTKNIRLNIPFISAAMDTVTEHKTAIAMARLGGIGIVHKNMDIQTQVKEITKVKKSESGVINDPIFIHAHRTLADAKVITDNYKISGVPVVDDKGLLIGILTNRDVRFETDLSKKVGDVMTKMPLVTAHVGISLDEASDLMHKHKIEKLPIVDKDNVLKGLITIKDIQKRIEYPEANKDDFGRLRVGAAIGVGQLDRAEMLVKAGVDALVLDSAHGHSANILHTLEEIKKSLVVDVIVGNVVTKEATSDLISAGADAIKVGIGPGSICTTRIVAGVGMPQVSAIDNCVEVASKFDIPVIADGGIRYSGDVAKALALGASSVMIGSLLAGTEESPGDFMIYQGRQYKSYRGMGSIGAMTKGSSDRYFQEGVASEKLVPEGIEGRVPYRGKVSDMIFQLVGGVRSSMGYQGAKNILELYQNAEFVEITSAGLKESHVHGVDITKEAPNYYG
Protocol: The assay was carried out according to Galal[40] and was described in detail in the supplementary file.
Thus, irigenin was selected to test its HpIMPDH inhibitory activity by monitoring NADH production at concentration range of 10–0.078 µM compared to clarithromycin as standard drug. Also, to examine irigenin selectivity toward the bacterial IMPDH, human hIMPDH2 inhibition potential was assayed.
The assay was carried out in a final volume of two hundred μL in black 96-well plate (Tarsons Products Pvt. Ltd., Kolkata, India) with a reaction buffer composed of one hundred mM KCl, fifty mM Tris–HCl (pH 8.6), and one mM dithiothreitol (DTT). One hundred nM H. pylori inosine-5′-monophosphate dehydrogenase (HpIMPDH) in the presence/absence of the tested compound were used. The assay mixture was then incubated at 37 °C for 10 min, and the reaction was initiated by the adding 250 μM of inosine 5ʹ‐monophosphate (IMP) and 300 μM of nicotinamide adenine dinucleotide (NAD^+) substrate buffer. The assay was allowed to proceed for 45 min at 37 °C.
The formed NADH was measured by recording the fluorescence (excitation 340 nm, emission 440 nm) using PerkinElmer EnVision Multilabel Reader (Waltham, MA) at an interval of one min. DMSO and clarithromycin were used as vehicle control and positive control, respectively. The concentration of the tested sample leading to 50% HpIMPDH inhibition (IC50) was estimated.

human recombinant COX-2 = biological target: T2, human recombinant COX-2 (Homo sapiens, UniProt P35354); assay: COX-2 inhibitory activity, colourimetric COX inhibitor screening assay kit; assay type: biochemical
T2 construct: purchased
T2 sequence (P35354 18-604): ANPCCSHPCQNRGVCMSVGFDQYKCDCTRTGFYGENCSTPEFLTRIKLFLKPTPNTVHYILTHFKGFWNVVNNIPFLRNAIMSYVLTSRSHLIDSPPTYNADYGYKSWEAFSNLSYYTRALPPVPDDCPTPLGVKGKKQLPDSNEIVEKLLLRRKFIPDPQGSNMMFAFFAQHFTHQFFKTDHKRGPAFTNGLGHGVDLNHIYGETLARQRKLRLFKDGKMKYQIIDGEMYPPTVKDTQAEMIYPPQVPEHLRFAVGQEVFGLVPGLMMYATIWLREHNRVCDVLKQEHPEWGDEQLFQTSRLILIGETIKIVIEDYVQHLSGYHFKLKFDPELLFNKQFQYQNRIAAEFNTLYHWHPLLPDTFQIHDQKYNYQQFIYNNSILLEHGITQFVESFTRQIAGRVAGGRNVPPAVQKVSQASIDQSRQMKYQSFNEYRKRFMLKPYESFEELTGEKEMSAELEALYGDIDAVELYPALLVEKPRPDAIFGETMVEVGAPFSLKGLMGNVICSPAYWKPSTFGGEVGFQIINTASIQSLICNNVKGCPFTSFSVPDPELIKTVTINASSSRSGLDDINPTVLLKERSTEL
Protocol: The inhibitory COX activity was assayed colourimetrically by examining the inhibition of the ovine COX-1 and human recombinant COX-2 enzymes as described by George et al.[38], using a COX inhibitor screening assay kit. The detailed procedures were described in the supplementary file.
The inhibitory COX activity was assayed colourimetrically by examining the inhibition of the ovine COX-1 and human recombinant COX-2 enzymes as described by George et al. ^2, using a COX inhibitory screening assay kit. This assay determines the COX peroxidase activity by monitoring the appearance of N,N,N',N'-tetramethyl-p-phenylenediamine (TMPD). Assay buffer (150 μL 0.1 M Tris–HCl pH 8.0), 10 μL heme and 10μL enzyme (COX-1 or COX-2) were added in each well. Ten μL of each tested sample concentration was added to each well and incubated for 15 minutes at 37°C. After incubation, 20 μL of TMPD was added to each well. For initiating the reaction, 10 μL 10 mM arachidonic acid was added and the plates were further incubated for another 2 minutes at 37°C. For terminating the reaction, 50 μL 1 N HCl and saturated stannous chloride were added.
Reaction mixture containing assay buffer and heme acted as the blank and a mixture with either COX-1 or COX-2 assay buffer and heme acted as the 100% initial activity (IA). […] The absorbances of oxidized TMPD (blue colour) were read in ELISA plate reader at 590 nm. The % inhibition was calculated using the following formula:
COX % Inhibition= [(100%IA−Inhibitor)/ 100% IA x 100]. Where, IA: 100% initial activity.
The concentration at which the tested sample produces 50% inhibition of COX-1 and/or COX-2 (IC50) was determined. The selectivity index (SI) was calculated also as IC50 (COX-1)/ (COX-2).

COc1cc(-c2coc3cc(O)c(OC)c(O)c3c2=O)cc(O)c1OC [Irigenin (P3), 3′,5,7-trihydroxy-4′,5′,6 trimethoxyisoflavone]
IC50 [1]: 2070 ± 1900 nM | HpIMPDH inhibitory activity ([1]; sample conc. 0.078 (range 10–0.078 µM)): 0.00 | HpIMPDH inhibitory activity ([1]; sample conc. 0.156 (range 10–0.078 µM)): 0.00 | HpIMPDH inhibitory activity ([1]; sample conc. 0.313 (range 10–0.078 µM)): 6.14 ± 1.90 | HpIMPDH inhibitory activity ([1]; sample conc. 0.625 (range 10–0.078 µM)): 10.25 ± 2.80 | HpIMPDH inhibitory activity ([1]; sample conc. 1.25 (range 10–0.078 µM)): 24.19 ± 1.70 | HpIMPDH inhibitory activity ([1]; sample conc. 2.5 (range 10–0.078 µM)): 59.31 ± 1.40 | HpIMPDH inhibitory activity ([1]; sample conc. 5 (range 10–0.078 µM)): 71.08 ± 1.30 | HpIMPDH inhibitory activity ([1]; sample conc. 10 (range 10–0.078 µM)): 83.25 ± 0.58 | IC50 (human recombinant COX-2; human recombinant COX-2): 10.8 ± 0.86 µM | SI (COX-1/COX-2) (human recombinant COX-2; selectivity index calculated as IC50 (COX-1)/(COX-2)): 3.26
